Reference: patent publication US20040186066A1, “Method of treatment with nelfinavir” (AGOURON PHARMACEUTICALS, INC., priority 2003, published 2004)
Marks after values point to notes of the source that are not given here.

What was measured:
[1] = with increasing food intake; cited from earlier work
[2] = Example 2: phase 1 crossover 3×3 study, fixed kilocalorie meal at 20% and 50% fat, single-dose pharmacokinetics of nelfinavir 250 mg tablets; format: in vivo, human (normal, healthy volunteers)
Procedure: A study was conducted as a phase 1, randomized, open-label, crossover 3×3 study, designed to evaluate the impact of a fixed kilocalorie meal at 20% and 50% fat content on single-dose pharmacokinetic parameters of the nelfinavir 250 mg tablet formulation in normal, healthy volunteers. Subjects were dosed with 1250 mg of nelfinavir 3 times at one-week intervals and 24-hour PK profiles were collected following each of the doses. Each subject was assigned three meals with different fat contents prior to dosing (fasting, 500kcal with 20% fat, 500 kcal with 50% fat) using a Latin square design. Twenty-four subjects entered the study and twenty-two subjects completed it. Each subject received the following treatment in random order on Days 1, 8 and 15: 5×250 mg nelfinavir tablets with fasting; 5×250 mg nelfinavir tablets, with a meal comprising 500Kcal/20% fat; and 5×250 mg nelfinavir tablets with a meal having 500 Kcal/50% fat. The moderate calorie/low fat meal consisted of 500 Kcal with 20% fat (11.3 grams of fat). The moderate calorie/high fat meal consisted of 500 Kcal with 50% fat (27.8 grams of fat). Subjects were administered nelfinavir 1250-mg (five 250-mg tablets) on the morning of the pharmacokinetic evaluations. The nelfinavir terminal half-life (t½) in plasma is typically 3.5 to 5 hours. […] Subjects participated on an outpatient basis; however, subjects were admitted to the in-patient facility the evening prior to each PK evaluation and remained in the in-patient facility for approximately 16 hours post-dosing. The subjects returned the next morning (8 hours later) for their last 24 hr. pharmacokinetic blood draw. All pharmacokinetic evaluations were performed in the in-patient facility. Blood samples were collected and analyzed for plasma concentrations of nelfinavir and M8. For the fasting evaluation, subjects were required to complete an overnight fast of at least 10 hours prior to dosing in the morning. For the fed PK evaluations, subjects were required to complete an overnight fast of at least 10 hours, prior to receiving the protocol-specific standardized breakfast meal. Subjects were given 30 minutes to complete their standardized breakfast meal. Dosing was performed in the morning, immediately following the subject's completion of the standardized breakfast meal and after the subject's predose PK specimen had been collected. Subjects could not ingest water 1 hour prior to or 1 hour after dosing. A standardized lunch was given at least 4 hours after the morning dose and a standardized dinner was given at least 10 hours after the morning dose. Actual sampling times were used for all data evaluation. Mean Cmax and AUC values were calculated as the antilogs of least-squares mean log-transformed values (analogous to geometric means). Ratios and confidence intervals for Cmax and AUC values are also based on log-transformed values. Mean values for all other pharmacokinetic parameters are least-squares means. Ratios and confidence intervals for these parameters are based on untransformed values. Blood samples, 5 mL each, were collected as in Example 1. The timing of each sample collection was as follows: Predose and at 0.5, 1, 2, 3, 4, 6, 8, 12, 16 and 24 hours postdose on Days 1, 8, and 15. All blood samples were kept at […] (using either wet ice or cryoblock) until centrifugation. Blood samples were centrifuged within 1 hour of collection, at 3000 rpm (approximately 2619×g) for 15 minutes, to separate the plasma. The plasma samples were split evenly into 2 aliquots and stored in appropriately labeled polypropylene transport tubes. Plasma was stored frozen at […] or lower until analysis. Pharmacokinetic parameter values were calculated from plasma nelfinavir and M8 concentration-time data using standard noncompartmental pharmacokinetic methods as in Example 1. Plasma concentrations of nelfinavir and M8 were measured by validated high-performance liquid chromatography (HPLC) methods. […]

[3] = Example 1: phase I crossover food-effect study, single-dose pharmacokinetics of nelfinavir 250 mg tablets (total kilocalories and fat); format: in vivo, human (normal healthy volunteers); details: for bioavailability of M8 higher relative to fasting, based on AUC(0-∞): M8 after 1250 mg nelfinavir
Procedure: A phase I, randomized, open-label crossover study to evaluate the impact of total kilocalories and fat content on single-dose pharmacokinetic parameters of the nelfinavir 250 mg tablet formulation in normal healthy volunteers was performed. Healthy volunteers entered the study and received the following treatment in random order at least 1 week apart: 1) 5×250 mg nelfinavir tablets, fasted 2) 5×250 mg nelfinavir tablets (breakfast meal 1, 125 Kcal/20% fat=low cal/low fat) 3) 5×250 mg nelfinavir tablets (breakfast meal 2, 500 Kcal/20% fat=medium cal/low fat) 4) 5×250 mg nelfinavir tablets (breakfast meal 3, 1000 Kcal/50% fat=high cal/high fat). Plasma concentrations of nelfinavir and its active hydroxy-t-butylamide metabolite (M8) were measured by validated high performance liquid chromatography (HPLC) methods. Pharmacokinetic parameters were determined from plasma concentration-time data using standard methods. Nelfinavir was administered as five 250-mg tablets with 240 mL of water. All subjects received a standardized snack the evening they were admitted to the in-patient facility. For the fasting evaluation, subjects were required to complete an overnight fast of at least 10 hours prior to dosing in the morning. For the fed pharmacokinetic evaluations, subjects were required to complete an overnight fast of at least 10 hours, prior to receiving the protocol-specific standardized breakfast meal (that is, Meal 1, Meal 2, or Meal 3). Subjects were given 30 minutes to complete their standardized breakfast meal. Dosing was performed in the morning, immediately following the subject's completion of the standardized breakfast meal and after the subject's pre-dose pharmacokinetic specimen had been collected. Subjects could not ingest water 1 hour prior to or 1 hour after dosing. A standardized lunch was given at least 4 hours after the morning dose and a standardized dinner was given at least 10 hours after the morning dose. For pharmacokinetic sampling, blood samples, 5 mL each, were collected into heparinized vacuum tubes (green top tubes) via an indwelling catheter or direct venipuncture. The actual time of each collection was recorded on the source document. The timing of each sample collection was as follows: predose and at 0.5, 1, 2, 3, 4, 6, 8, and 12 hours postdose on Days 1, 8,15, and 22. Pharmacokinetic parameter values were calculated using WinNonlin Pro Version 2.1. Individual nelfinavir plasma concentrations were used to predict steady-state plasma concentrations during BID administration with meals of various Kcal content. WinNonlin Pro Version 3.2 noncompartmental superposition was used for this simulation. Predicted steady-state Cmax and Cmin values were compared.

[4] = M8 after 1250-mg nelfinavir oral dose, fasting (reference)
[5] = M8 after 1250-mg nelfinavir with high calorie/high fat/high protein meal
[6] = M8 after 1250-mg nelfinavir with low calorie/low fat/low protein meal
[7] = M8 after 1250-mg nelfinavir with moderate calorie/low fat/moderate protein meal
[8] = high calorie/high fat/high protein meal vs fasting
[9] = low calorie/low fat/low protein meal vs fasting
[10] = moderate calorie/low fat/moderate protein meal vs fasting

## Cc1c(O)cccc1C(=O)N[C@@H](CSc1ccccc1)[C@H](O)CN1C[C@H]2CCCC[C@H]2C[C@H]1C(=O)NC(C)(C)CO [M8]
[1]
  M8 concentrations relative to nelfinavir: 15-20%
[2]; 1250 mg nelfinavir single dose, fasting
  M8 AUC∞/Nelfinavir AUC∞(%): 8.6%
[2]; Kcal/Fat % 500/20%
  M8 AUC∞/Nelfinavir AUC∞(%): 8.7%
[2]; Kcal/Fat % 500/50%
  M8 AUC∞/Nelfinavir AUC∞(%): 11.4%
[2]; test meal containing 20% fat
  mean M8 AUC(0-∞) higher relative to fasting subjects: 3 fold
[2]; test meal containing 50% fat
  mean M8 AUC(0-∞) higher relative to fasting subjects: 6.8 fold
[2]; remained the same with increasing fat intake
  percentage of M8 relative to nelfinavir: around 10%
[3]; 1250 mg nelfinavir single oral dose, fasting
  M8 AUCinf/NFV AUCinf (%): 26.5%
[3]; high calorie meal (1000 Kcal)
  bioavailability of M8 higher relative to fasting, based on AUC(0-∞): 4.1 fold
[3]; low calorie meal (125 Kcal)
  bioavailability of M8 higher relative to fasting, based on AUC(0-∞): 1.3 fold
[3]; moderate calorie meal (500 Kcal)
  bioavailability of M8 higher relative to fasting, based on AUC(0-∞): 1.8 fold
[3]; [4]
  M8 AUC(0-tlqc), least-squares mean: 0.655^a μg · hr/mL
  M8 AUC(0-∞), least-squares mean: 2.81^c μg · hr/mL
  M8 t1/2, least-squares mean: 2.68^c hr
  M8 tmax, least-squares mean: 3.45^b hr
[3]; [5]
  M8 AUC(0-tlqc), least-squares mean: 7.58^g μg · hr/mL
  M8 AUC(0-∞), least-squares mean: 11.5^a μg · hr/mL
  M8 Cmax, least-squares mean: 1.28^g μg/mL
  M8 t1/2, least-squares mean: 3.90^a hr
  M8 tmax, least-squares mean: 5.01^a hr
[3]; [6]
  M8 AUC(0-tlqc), least-squares mean: 2.01^d μg · hr/mL
  M8 AUC(0-∞), least-squares mean: 3.66^f μg · hr/mL
  M8 Cmax, least-squares mean: 0.533^d μg/mL
  M8 t1/2, least-squares mean: 2.40^f hr
  M8 tmax, least-squares mean: 3.88^e hr
[3]; [7]
  M8 AUC(0-tlqc), least-squares mean: 3.46^a μg · hr/mL
  M8 AUC(0-∞), least-squares mean: 5.11^e μg · hr/mL
  M8 Cmax, least-squares mean: 0.693^a μg/mL
  M8 t1/2, least-squares mean: 2.96^e hr
  M8 tmax, least-squares mean: 4.49^a hr
[3]; M8 in plasma after 1250-mg nelfinavir oral dose, fasting (reference)
  M8 Cmax, least-squares mean: 0.228^a μg/mL
[3]; fed state
  M8 AUC/nelfinavir AUC: 15-21%
[3]; food intake 125 kcal/20% fat
  M8 AUCinf/NFV AUCinf (%): 15.8%
[3]; food intake 500 kcal/20% fat
  M8 AUCinf/NFV AUCinf (%): 15.3%
[3]; food intake 1000 kcal/50% fat
  M8 AUCinf/NFV AUCinf (%): 20.8%
[3]; [8]
  M8 AUC(0-tlqc) ratio (100% × test/reference): 1157%
  M8 AUC(0-∞) ratio (100% × test/reference): 408%
  M8 Cmax ratio (100% × test/reference): 562%
  M8 t1/2 ratio (100% × test/reference): 145%
  M8 tmax ratio (100% × test/reference): 145%
[3]; [9]
  M8 AUC(0-tlqc) ratio (100% × test/reference): 343%
  M8 AUC(0-∞) ratio (100% × test/reference): 130%
  M8 Cmax ratio (100% × test/reference): 234%
  M8 t1/2 ratio (100% × test/reference): 89.4%
  M8 tmax ratio (100% × test/reference): 113%
[3]; [10]
  M8 AUC(0-tlqc) ratio (100% × test/reference): 529%
  M8 AUC(0-∞) ratio (100% × test/reference): 182%
  M8 Cmax ratio (100% × test/reference): 304%
  M8 t1/2 ratio (100% × test/reference): 110%
  M8 tmax ratio (100% × test/reference): 130%
